Experimental data as given in PubChem BioAssay (NCI).
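Results reflect a 48-hour exposure of cells in 96-well plates to compound at five concentrations. GI50 marks 50% less growth. TGI is the concentration that stops growth completely.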

Assays:
Experiment in all cases: DTP human tumour cell line panel, 48 h
[1] = system: RPMI-8226 leukemia
[2] = system: OVCAR-3 ovarian
[3] = system: HCC-2998 colon
[4] = system: SF-268 CNS
[5] = system: SF-539 CNS
[6] = system: IGROV1 ovarian
[7] = system: NCI-H23 lung
[8] = system: KM12 colon
[9] = system: COLO 205 colon
[10] = system: SK-MEL-2 melanoma
[11] = system: A498 renal
[12] = system: TK-10 renal
[13] = system: CCRF-CEM leukemia
[14] = system: SR leukemia
[15] = system: HOP-92 NSCLC
[16] = system: K-562 leukemia
[17] = system: SK-MEL-5 melanoma
[18] = system: UACC-257 melanoma
[19] = system: SNB-19 CNS
[20] = system: PC-3 prostate
[21] = system: SN12C renal
[22] = system: ACHN renal
[23] = system: NCI/ADR-RES ovarian
[24] = system: SNB-75 CNS
[25] = system: RXF 393 renal
[26] = system: MDA-MB-435
[27] = system: HOP-62 NSCLC
[28] = system: MDA-MB-231 breast
[29] = system: 786-0 renal
[30] = system: OVCAR-5 ovarian
[31] = system: CAKI-1 renal
[32] = system: OVCAR-8 ovarian
[33] = system: MCF7 breast
[34] = system: MOLT-4 leukemia
[35] = system: NCI-H226 lung
[36] = system: SK-MEL-28 melanoma
[37] = system: HCT-116 colon
[38] = system: UACC-62 melanoma
[39] = system: NCI-H460 lung
[40] = system: M14 melanoma
[41] = system: T-47D breast
[42] = system: SK-OV-3 ovarian
[43] = system: HS 578T breast
[44] = system: A549 NSCLC
[45] = system: DU-145 prostate
[46] = system: HCT-15 colon
[47] = system: HL-60(TB) leukemia
[48] = system: UO-31 renal
[49] = system: NCI-H522 lung
[50] = system: SF-295 CNS
[51] = system: SW-620 colon
[52] = system: BT-549 breast
[53] = system: LOX IMVI melanoma
[54] = system: MALME-3M melanoma

## COc1ccccc1-c1ccc2c(N)c(C(=O)c3ccc4c(c3)OCO4)sc2n1
[1]
  GI50: 6.05 µM
  TGI: 59.4 µM
[2]
  GI50: 5.18 µM
  TGI: 22 µM
[3]
  GI50: 12 µM
  TGI: 29.1 µM
[4]
  GI50: 7.55 µM
  TGI: 32.4 µM
[5]
  GI50: 4.94 µM
  TGI: 17 µM
[6]
  GI50: 7.93 µM
  TGI: 25.5 µM
[7]
  GI50: 12.9 µM
  TGI: 52.8 µM
[8]
  GI50: 4.46 µM
  TGI: 23.3 µM
[9]
  GI50: 10 µM
  TGI: 31 µM
[10]
  GI50: 3.38 µM
  TGI: 10.9 µM
[11]
  GI50: 2.39 µM
  TGI: 13.8 µM
[12]
  GI50: 12.8 µM
  TGI: 28.6 µM
[13]
  GI50: 5.27 µM
  TGI: > 100 µM
[14]
  GI50: 2.99 µM
  TGI: 31.1 µM
[15]
  GI50: 2.99 µM
  TGI: 13 µM
[16]
  GI50: 3.74 µM
  TGI: > 100 µM
[17]
  GI50: 4.52 µM
  TGI: 24.2 µM
[18]
  GI50: 6.1 µM
  TGI: 22.7 µM
[19]
  GI50: 7.97 µM
  TGI: 30.2 µM
[20]
  GI50: 10.6 µM
  TGI: 40.3 µM
[21]
  GI50: 6.14 µM
  TGI: 24.5 µM
[22]
  GI50: 4.07 µM
  TGI: 13.5 µM
[23]
  GI50: 4.13 µM
  TGI: 16.7 µM
[24]
  GI50: 3.27 µM
  TGI: 15.6 µM
[25]
  GI50: 3.01 µM
  TGI: 11.2 µM
[26]
  GI50: 2.27 µM
  TGI: 9.54 µM
[27]
  GI50: 3.52 µM
  TGI: 14.7 µM
[28]
  GI50: 2.81 µM
  TGI: 8.59 µM
[29]
  GI50: 2.78 µM
  TGI: 11.3 µM
[30]
  GI50: 11.2 µM
  TGI: 29.5 µM
[31]
  GI50: 10.2 µM
  TGI: 25.9 µM
[32]
  GI50: 4.57 µM
  TGI: 16.7 µM
[33]
  GI50: 4.82 µM
  TGI: 98.6 µM
[34]
  GI50: 4.98 µM
  TGI: > 100 µM
[35]
  GI50: 7.35 µM
  TGI: 31.8 µM
[36]
  GI50: 5.03 µM
  TGI: 19.9 µM
[37]
  GI50: 3.68 µM
  TGI: 15 µM
[38]
  GI50: 4.12 µM
  TGI: 18.6 µM
[39]
  GI50: 4.04 µM
  TGI: 16.7 µM
[40]
  GI50: 4.21 µM
  TGI: 75 µM
[41]
  GI50: 3.39 µM
  TGI: 14.4 µM
[42]
  GI50: 5.97 µM
  TGI: 18.2 µM
[43]
  GI50: 7.97 µM
  TGI: 47.1 µM
[44]
  GI50: 4.05 µM
  TGI: 16.6 µM
[45]
  GI50: 15 µM
  TGI: 42.6 µM
[46]
  GI50: 4.08 µM
  TGI: 53.6 µM
[47]
  GI50: 4.83 µM
  TGI: > 100 µM
[48]
  GI50: 4.12 µM
  TGI: 16.7 µM
[49]
  GI50: 4.32 µM
  TGI: 19.7 µM
[50]
  GI50: 3.98 µM
  TGI: 18.5 µM
[51]
  GI50: 4.34 µM
  TGI: > 100 µM
[52]
  GI50: 7.21 µM
  TGI: 30.2 µM
[53]
  GI50: 4.61 µM
  TGI: 21.6 µM
[54]
  GI50: 4.9 µM
  TGI: 16 µM
